Measurements reported in patent US20070010548A1, “Compounds having inhibitive activity of phosphatidylinositol 3-kinase and methods of use thereof” (ZENTARIS GmbH, priority 2003, published 2007).
Read-outs that look alike come from different tables or passages of the source.

Tests used:
[1] = target: T1, PI 3-K alpha (Homo sapiens, UniProt P42336); experiment: PI 3-K activity assay, IC50 determination (AlphaScreen luminescent or Fluorescence Polarization); format: biochemical; conditions: inhibition of enzyme activity in vitro
T1 construct: made in house; host or cells: Sf9 cells, baculovirus expression system; constructs from the lab of Dr. Alex Toker, Harvard University
Method: Recombinant heterodimeric PI 3-K alpha, consisting of a p110 catalytic subunit and a GST-tagged p85 regulatory subunit, was expressed in Sf9 cells using a baculoviras expression system. Expression constructs were obtained from the lab of Dr. Alex Toker, Harvard University. The method is well known to those skilled in the art and is also described in Stoyanov et al., Science 269, 690-693 (1995).and Stoyanova et al., Biochem. J. 324 :489-495. (1997).
PI 3-kinase reactions were performed in a reaction buffer containing 5 mM HEPES, pH 7, 2.5 mM MgCl2, and 25 μM ATP, containing 50 ng of recombinant PI 3-K with 10 picomoles of diC8 PI(4,5)P2 (Echelon Biosciences) as the substrate. The reactions were allowed to proceed at room temperature for 1-3 hours, then quenched by the addition of EDTA to a final concentration of 10 mM. The final reaction volumes were 10 μl. The compounds to be tested for inhibition were added to a final concentration of 1 μM from stocks in DMSO. The final concentration of DMSO was 1%.
Conversion of the substrate to PI(3,4,5)P3 was determined using a competition assay using Amplified Luminescent Proximity Homogeneous Assay (ALPHA®) technology developed by Perkin Elmer. 0.25 picomoles of recombinant GST-Grp1-PH domain protein and 0.25 picomoles of biotinylated diC6 PI(3,4,5)P3 (Echelon Biosciences) were added to each reaction mixture. Donor and Acceptor beads from the AlphaScreen® GST (Glutathione-S-Transferase) Detection Kit (PerkinElmer) were added to a final concentration of 20 μg/ml. The final volume was 25 μl. The reactions were incubated at 37° C. for two hours, and the luminescent signal was read on a Fusion α microplate reader. Percent inhibition of enzyme activity was determined by comparison to no enzyme (100% inhibition) and DMSO alone (0% inhibition) controls.
An alternate method used for detecting substrate conversion to PI(3,4,5)P3 was a competitive Fluorescence Polarization assay. 125 picomoles of recombinant GST-Grp1-PH domain protein and 0.25 picomoles of TAMRA-I(1,3,4,5)P4 (Echelon Biosciences) were added to each reaction mixture The final volume was 25 μl. Polarization values were measured on a microplate reader using 550 nm excitation/580 nm polarizing emission filters. BODIPY-TMR-I(1,3,4,5)P4 or BODIPY-TMR-PI(3,4,5)P3 could substitute as the fluorescent tracers in this assay. Percent inhibition of enzyme activity was determined by comparison to no enzyme (100% inhibition) and DMSO alone (0% inhibition) controls.
A library of potential PI 3-K inhibitors was tested for activity against PI 3-K alpha in the following manner. From the active compounds identified, twelve were selected as representatives from different chemical groups present in the library and subjected to further analysis. IC50 values were determined for the selected compounds of the present invention. Enzyme activity assays were performed as previously described, in the presence of a range of compound concentrations to allow determination of IC50 values. Enzyme activity and percent inhibition was determined using the AlphaScreen® luminescent assay or a Fluorescence Polarization assay as previously described. These inhibitors may also show activity against other PI 3-K isoforms, including PI 3-K beta, gamma, and delta.

[2] = tested on: OVCAR3 cells; experiment: MTT cell proliferation/viability assay, OVCAR3 ovarian cancer cells; format: cell-based; conditions: Homo sapiens
Method: The ovarian cancer cell line SKOV3 is not altered in PI 3-K signaling and should be less sensitive to the anti-proliferative effects produced by treatment with PI 3-K inhibitors, while the OVCAR3 cell line, which is altered in PI 3-K signaling, via amplification of PI 3-K activity, should be sensitive. SKOV3 cells were seeded in 96-well cell culture plates (Greiner) at a density of 20,000 cells per well in McCoys 5A media (GibcoBRL) with 10% fetal calf serum and 20 mM L-glutamine. OVCAR3 cells were seeded at a density of 15,000 cells per well in RPMI 1640 media (GibcoBRL) containing 20 mM 1-glutamine, 0.01 ng/ml bovine insulin, 10 mM Hepes pH 7.4, 1 mM sodium pyruvate, 2.5 g/L glucose, and 20% fetal calf serum. After 24 hours, compounds were added to cell media to a final concentration of 1 μM, and the cells were grown in the presence of the compounds for 48 hours, in media containing 0.5% fetal calf serum. Viability was determined using a MTT cell proliferation assay (R and D Systems) and comparison to DMSO alone controls (100% viability). Compounds which result in reduced viability may act either by inhibiting cell proliferation or by inducing apoptosis (programmed cell death).
Many of these also show similar selective effects on cell growth. Table 2 summarizes the results of two separate cell proliferation experiments for selected compounds of the present invention.

[3] = OVCAR-3, 48 hours, MTT, DMSO alone controls = 100% viability, Trial 1, read-out: Trial 1 OVCAR3 (viability)
[4] = OVCAR-3, 48 hours, MTT, DMSO alone controls = 100% viability, Trial 2, read-out: Trial 2 OVCAR3 (viability)
[5] = OVCAR-3, average of Trial 1 and Trial 2, 48 hours, read-out: average OVCAR-3 (viability)

T1 sequence (P42336 whole entry, species assumed): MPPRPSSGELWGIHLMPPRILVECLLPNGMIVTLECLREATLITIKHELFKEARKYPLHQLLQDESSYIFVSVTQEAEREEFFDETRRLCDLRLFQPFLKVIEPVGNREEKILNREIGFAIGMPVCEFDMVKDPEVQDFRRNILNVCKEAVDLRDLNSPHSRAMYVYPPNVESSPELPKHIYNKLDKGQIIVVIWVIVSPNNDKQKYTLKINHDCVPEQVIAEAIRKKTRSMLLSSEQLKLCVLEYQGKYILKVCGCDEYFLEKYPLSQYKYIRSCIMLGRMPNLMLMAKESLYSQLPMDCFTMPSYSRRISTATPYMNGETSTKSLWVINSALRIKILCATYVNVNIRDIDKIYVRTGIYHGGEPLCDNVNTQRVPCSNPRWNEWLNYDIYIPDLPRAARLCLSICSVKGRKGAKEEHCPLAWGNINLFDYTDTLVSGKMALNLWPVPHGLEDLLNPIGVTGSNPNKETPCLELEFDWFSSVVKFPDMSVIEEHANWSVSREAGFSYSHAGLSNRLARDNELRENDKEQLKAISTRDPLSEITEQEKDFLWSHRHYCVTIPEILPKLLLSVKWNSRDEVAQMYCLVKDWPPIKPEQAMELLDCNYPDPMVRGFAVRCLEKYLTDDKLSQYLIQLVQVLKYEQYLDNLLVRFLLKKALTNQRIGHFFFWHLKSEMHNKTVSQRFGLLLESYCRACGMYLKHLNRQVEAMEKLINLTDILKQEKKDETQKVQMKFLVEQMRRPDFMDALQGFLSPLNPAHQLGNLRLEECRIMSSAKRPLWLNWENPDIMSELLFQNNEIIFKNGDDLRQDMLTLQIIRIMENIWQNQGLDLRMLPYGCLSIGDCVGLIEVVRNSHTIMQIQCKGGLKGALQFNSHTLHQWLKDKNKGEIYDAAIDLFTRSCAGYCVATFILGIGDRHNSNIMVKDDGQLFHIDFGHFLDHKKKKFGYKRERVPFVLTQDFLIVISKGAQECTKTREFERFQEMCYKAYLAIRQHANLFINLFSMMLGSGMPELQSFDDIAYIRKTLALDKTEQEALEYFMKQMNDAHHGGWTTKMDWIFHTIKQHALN
T1 sequence (P27986 whole entry partner, species assumed): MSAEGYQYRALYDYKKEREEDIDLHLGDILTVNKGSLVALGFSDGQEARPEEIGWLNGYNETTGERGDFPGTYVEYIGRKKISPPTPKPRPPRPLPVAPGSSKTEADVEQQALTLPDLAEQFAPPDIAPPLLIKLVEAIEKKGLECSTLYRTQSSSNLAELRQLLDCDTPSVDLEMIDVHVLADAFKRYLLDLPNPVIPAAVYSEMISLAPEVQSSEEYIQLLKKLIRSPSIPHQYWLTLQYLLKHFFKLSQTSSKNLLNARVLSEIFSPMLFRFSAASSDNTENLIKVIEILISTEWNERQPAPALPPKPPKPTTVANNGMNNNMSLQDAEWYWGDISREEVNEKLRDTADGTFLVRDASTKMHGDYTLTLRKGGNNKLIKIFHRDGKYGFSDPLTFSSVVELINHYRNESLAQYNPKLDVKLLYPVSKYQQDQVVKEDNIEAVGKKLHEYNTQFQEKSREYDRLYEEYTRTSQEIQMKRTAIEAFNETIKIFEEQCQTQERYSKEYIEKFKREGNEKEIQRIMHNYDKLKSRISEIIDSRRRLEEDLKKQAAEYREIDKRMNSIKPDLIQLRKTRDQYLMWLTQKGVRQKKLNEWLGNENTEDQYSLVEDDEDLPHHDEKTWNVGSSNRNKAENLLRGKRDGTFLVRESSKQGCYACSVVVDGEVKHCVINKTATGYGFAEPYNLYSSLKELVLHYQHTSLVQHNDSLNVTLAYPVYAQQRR

Structure (SMILES)	IC50 [1]	viability at 1 µM [2, 3]	viability at 1 µM [2, 4]	viability at 1 µM [2, 5]
CC1(C)CC(=O)C2=C(C1)Nc1c(c(C(C)(C)C)nn1C(C)(C)C)C2c1ccc(OCc2ccccc2)c(OCc2ccccc2)c1 (stereo not shown) [Compound 963985]	0.5 µM			
Cc1ccc(C2C3=C(CC(C)(C)CC3=O)Nc3c2c(C(C)(C)C)nn3-c2ccc(C)cc2)cc1 (stereo not shown) [Compound 964028, 3-t-butyl-4-(4-methylphenyl)-7,7-dimethyl-1-(4-methylphenyl)-4,7,8,9-tetrahydro-1H-pyrazolo[3,4-b]quinolin-5(6H)-one]	1 µM	42%	45.4%	43.7%
COc1ccc(-n2nc(C(C)(C)C)c3c2NC2=C(C(=O)CC(C)(C)C2)C3c2ccccc2Cl)cc1 (stereo not shown) [Compound 964076, 3-t-butyl-4-(2-chlorophenyl)-7,7-dimethyl-1-(4-methoxyphenyl)-4,7,8,9-tetrahydro-1H-pyrazolo[3,4-b]quinolin-5(6H)-one]	3 µM	41%	53.2%	47.1%
COc1ccc(OC)c(C2C3=C(CC(C)(C)CC3=O)Nc3c2c(C(C)(C)C)nn3-c2ccc(C)cc2C)c1 (stereo not shown) [Compound 964232]	5 µM	45%	71%	58%
COc1ccccc1C1C2=C(CC(C)(C)CC2=O)Nc2c1c(C(C)(C)C)nn2-c1ccc(Cl)c(C)c1 (stereo not shown) [Compound 964247]	7 µM	42%	43.7%	42.9%
CC1(C)CC(=O)C2=C(C1)Nc1c(c(C(C)(C)C)nn1-c1ccc(Cl)c(Cl)c1)C2c1cccc(OCc2ccccc2)c1 (stereo not shown) [Compound 964260]	8 µM	41%	53%	47%
CC1(C)CC(=O)C2=C(C1)Nc1c(c(-c3ccccc3)nn1-c1cccc(F)c1)C2c1ccc(C(F)(F)F)cc1 (stereo not shown) [Compound 964661]	8 µM	36%	58.9%	47.5%
